Assay results taken from patent publication US8367873B2, “Phenyl-substituted bicyclooctane-1,3-dione derivatives” (Bayer Cropscience AG, priority 2008, dated 2013).

Key:
Format in all cases: in vivo
Echinocloa crus-galli [1] = assay: Herbicidal post-emergence action; details: post-emergence method, 80 g/ha
Protocol: (§1) Seeds of monocotylidonous and dicotylidonous weed and crop plants are placed in sandy loam in wood fibre pots, covered with soil and cultivated in a greenhouse under good growth conditions. Two to three weeks after sowing, the test plants are treated at the one-leaf stage. The test compounds, formulated as wettable powders (WP), are then with a water application rate of 600 l/ha (converted), with 0.2% of wetting agent added, sprayed onto the green parts of the plants in different amounts. After the test plants have been kept in the greenhouse under optimum growth conditions for about three weeks, the effect of the preparations is assessed visually in comparison to untreated controls (herbicidal effect in percent: 100% effect=the plants have died, 0% effect=like control plants).

Lolium multiflorum [2] = assay: Herbicidal post-emergence action; details: post-emergence method, 80 g/ha
Protocol: as §1

Setaria viridis [3] = assay: Herbicidal post-emergence action; details: post-emergence method, 80 g/ha
Protocol: as §1

Alopecurus myosuroides [4] = assay: Herbicidal post-emergence action; details: post-emergence method, 80 g/ha
Protocol: as §1

[5] = system: monocotylidonous and dicotylidonous weed and crop plants; assay: Herbicidal post-emergence action (other test plants); details: post-emergence method, 80 g/ha
Protocol: as §1

Echinocloa crus-galli [6] = assay: Herbicidal pre-emergence action; details: pre-emergence method, 80 g/ha, greenhouse, visual assessment vs untreated controls
Excerpt: (§2) Seeds of monocotylidonous and dicotylidonous weed and crop plants are placed in sandy loam in wood fibre pots and covered with soil. The test compounds, formulated in the form of wettable powders (WP), are then, as an aqueous suspension with a water application rate of 600 l/ha (converted), with 0.2% of wetting agent added, applied to the surface of the covering soil in different amounts.
(§3) After the treatment, the pots are placed in a greenhouse and kept under good growth conditions for the test plants. The visual assessment of the emergence damage on the test plants is carried out after a trial period of three weeks by comparison with the untreated controls (herbicidal effect in percent: 100% effect=the plants have died, 0% effect=like control plants).

Lolium multiflorum [7] = assay: Herbicidal pre-emergence action; details: pre-emergence method, 80 g/ha, greenhouse, visual assessment vs untreated controls
Excerpt: as §2, §3

Setaria viridis [8] = assay: Herbicidal pre-emergence action; details: pre-emergence method, 80 g/ha, greenhouse, visual assessment vs untreated controls
Excerpt: as §2, §3

Alopecurus myosuroides [9] = assay: Herbicidal pre-emergence action; details: pre-emergence method, 80 g/ha, greenhouse, visual assessment vs untreated controls
Excerpt: as §2, §3

| Compound | herbicidal effect against ECHCG (Echinochloa crus-galli) (Echinocloa crus-galli [1]) | herbicidal effect against LOLMU (Lolium multiflorum) (Lolium multiflorum [2]) | herbicidal effect against SETVI (Setaria viridis) (Setaria viridis [3]) | herbicidal effect against ALOMY (Alopecurus myosuroides) (Alopecurus myosuroides [4]) | herbicidal effect against AVEFA (Avena fatua) [5] | herbicidal effect ECHCG (Echinocloa crus-galli [6]) | herbicidal effect LOLMU (Lolium multiflorum [7]) | herbicidal effect SETVI (Setaria viridis [8]) | herbicidal effect ALOMY (Alopecurus myosuroides [9]) |
| --- | --- | --- | --- | --- | --- | --- | --- | --- | --- |
| CCc1cc(C)cc(CC)c1C1=C(OC(=O)C(C)(C)C)C2CC3(CC2C1=O)OCCS3 (mixture of isomers) [I-b-19] | 100% | 40% | 80% | 20% | 30% | 100% | 100% | 90% | 100% |
| CCc1cc(C)cc(CC)c1C1=C(OC(=O)OC)C2CC3(CC2C1=O)OC(C)CC(C)O3 (mixture of isomers) [I-c-24] | 100% | 100% | 100% | 100% | 80% | 70% | 100% | 70% | 90% |
| CCc1cc(C)cc(CC)c1C1=C(O)[C@H]2CC(=NOC(C)C)C[C@H]2C1=O (relative stereo) [I-a-29] | 100% | 100% | 80% | 100% | 60% | 70% | 80% | 20% | 90% |
| CCc1cc(C)cc(CC)c1C1=C(OC(=O)C(C)(C)C)C2CC3(COC(C)(C)O3)CC2C1=O (centres unmarked) [I-b-5] | 80% | 100% | 0% | 90% | 20% | 10% | 100% | 60% | 90% |
| COc1cc(C)cc(C)c1C1=C(OC(=O)C(C)C)C2CC3(CC2C1=O)OCC=CCO3 (centres unmarked) [I-b-63] | 100% | 100% | 100% | 100% | 100% | 100% | 100% | 70% | 70% |
| C=C1CC2C(=O)C(c3c(C)cc(C)cc3C)=C([O-])C2C1.[Na+] (centres unmarked) [I-f-23] | 90% | 60% | 80% | 0% | 0% |  |  |  |  |
